# Counter-ions that a name gives are not always drawn. Like-named read-outs stand apart in the source and are kept apart here.
# How the values were obtained:
# ip P388 leukemia = conditions: ip P388 Leukemia; optimal doses and optimal schedules
# sc Lewis lung carcinoma = format: in vivo, mouse; conditions: sc Lewis Lung Carcinoma; optimal doses and optimal schedules
# Source text: (§1) The inoculum varies with the tumor.
# [1] = tested on: sc B16 melanoma/F10 subline; experiment: sc-implanted B16 melanoma/F10 subline in mice; format: in vivo, mouse; conditions: sc B16 Melanoma/F10 Subline; optimal doses and optimal schedules
# Source text: as §1
# L1210 leukemia cells = experiment: cells; format: cell-based, mouse
# Experimental: Cells were exposed continuously upon cloning into medium containing 0.2 percent Noble agar. After incubation at 37° C. in a CO2 incubator for 3 days, colonies were stained with viable cell specific formazan stain and, 24 hours later, were enumerated by a colony counter (Biotran II, New Brunswick Scientific Co., Edison, N.J.) adjusted to identify colonies of more than 50 cells. The concentration which reduced cloning efficiency by 50 percent IC50) was determined by interpolation.
# iv L1210 leukemia = conditions: for Increase in Lifespan (ILS) or Inhibition of Tumor Growth (TGI): iv L1210 Leukemia, optimal doses and optimal schedules; for ILS: iv L1210 (10^6 cells), Days 1 & 5, route ip in table head (iv)
# Source text: (§2) Animals were inoculated iv with 10^6 cells. Increase in lifespan (ILS) is based on median survival time of groups of 6 mice relative to untreated controls.
# (§3) The protocols utilized for the evaluation of the antitumor activity of Formula (I) compounds are well established and widely utilized by those skilled in the art of assessing the activity of drugs in preclinical tumor models. These studies generally follow the protocols established by the National Cancer Institute as described by Geran et al., Cancer Chemotherapy Reports, Part 3, Vol. 3, 1-103, 1972.
# (§4) Tumors used in these studies P388 leukemia, L1210 leukemia and Lewis lung carcinoma--are maintained by serial transplantation in syngeneic strains of mice, DBA/2 for the leukemias and C57B1/6 for Lewis lung carcinoma. The leukemias are serially transplanted i.p. as ascites cell suspensions while the Lewis lung carcinoma is serially transplanted as a s.c. solid tumor.
# (§5) For therapeutic trials, tumors were aseptically removed from donor mice and prepared as suspensions for implantation into test animals which for each tumor are syngeneic female F1 hybrid B6D2F1 mice (C57B1/6×DBA/2). The inoculum level varies with the type of tumor: P388 leukemia is inoculated at 10^6 cells per mouse, L1210 leukemia at 10^5 or 10^6 cells per mouse, and Lewis lung carcinoma at 0.25 ml of a 10 percent (w:v) brei. […] After tumor inoculation, mice are randomized to treatment groups of 6 to 8 mice each. In each experiment, there are three groups of untreated control mice.
# (§6) Drugs are dissolved or suspended in appropriate aqueous vehicles and given i.p. or i.v. on various treatment schedules over a range of dosage levels. Animals are housed in shoebox cages and monitored daily for mortality for 30 (L1210), 45 (P388) or 60 (Lewis lung) days.
# Aqueous solubility = format: physicochemical
# iv P388 leukemia = conditions: iv P388 Leukemia; optimal doses and optimal schedules
# Source text: as §4, §5, §6
# sc M5076 sarcoma = experiment: sc-implanted M5076 sarcoma in mice; format: in vivo, mouse; conditions: sc M5076 Sarcoma; optimal doses and optimal schedules
# Source text: as §1
# ip L1210 leukemia = experiment: ip-implanted L1210 leukemia in mice;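 as to all read-outs here: each mouse received 10^6 L1210 cells intraperitoneally, with drug treatment also given by the i.p. route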; conditions: for In Vivo Antitumor Activity ILS (increase in lifespan): ip L1210 (10^6 cells), drug i.p. Days 1 and 5 at maximally tolerated dose; for Increase in Lifespan (ILS) or Inhibition of Tumor Growth (TGI): ip L1210 Leukemia, optimal doses and optimal schedules
# Experimental: (§7) For in vivo studies L1210 cells were implanted i.p. (10^6 per mouse)
# (§8) and drugs were administered i.p. on Days 1 and 5. Increase in lifespan
# (§9) (ILS) was based on median survival time of groups of 6 mice treated at th
# maximally tolerated dose of the drugs.
# [2] = ip-implanted L1210 leukemia in mice; conditions: mouse, in vivo, ip;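 also: each mouse received 10^6 L1210 cells intraperitoneally, with drug treatment also given by the i.p. route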
# Experimental: as §7, §8, §9
# maximally tolerated dose of the drugs.
# ip M5076 sarcoma = experiment: ip-implanted M5076 sarcoma in mice; format: in vivo, mouse; conditions: ip M5076 Sarcoma; optimal doses and optimal schedules
# Source text: (§10) Tumors used in these studies--P388 leukemia and its doxorbicin--and mitoxanrone-resistant sublines, L1210 leukemia, B16 melanoma, B16 melanoma/F10 subline, M5076 sarcoma and colon carcinoma 26--are maintained by serial transplantation in syngeneic strains of mice. For the leukemias, these tumors are maintained in DBA/2 mice. The M5076 sarcoma, the B16 melanoma and its F10 subline are maintained in C57B1/6 mice and the colon sarcinoma 26 is maintained in BALB/c mice. The leukemias and the M5076 sarcoma are serially transplanted i.p. as ascites cell suspensions while the B16 melanoma lines and the colon carcinoma 26 are serially transplanted as s.c. solid tumors.
# (§11) For therapeutic trials, tumors are aseptically removed from donor mice and prepared as suspensions for implantation ip into test animals. The test animals for the colon carcinoma 26 are female BALB/c mice (20-25 gm). The test animals for the other tumor models are syngeneic female F1 hybrid B6D2F1 mice (C57B1/6 x DBA/2). The inoculum level varies with the type of tumor: P388 leukemia is inoculated at 10^6 cells per mouse, L1210 leukemia at 10^5 or 10^6 cells per mouse, M5076 sarcoma at 5×10^6 cells per mouse. For implantation of the B16 melanoma lines and the colon carcinoma 26, s.c. tumors from donor mice are minced and homogenized in loose fitting teflon glass homogenizer to give a tumor brei. The inoculum levels are 0.5 ml of a 10 percent (w:v) brei of the B16 melanoma lines and 0.5 ml of a 5 percent (w:v) brei of colon carcinoma 26. After tumor inoculation, mice randomized to treatment groups comprised of 6-8 mice each. In each experiment, there are three groups of untreated control mice. Drugs are dissolved or suspended in appropriate aqueous vehicles and given by a variety of routes and schedules of administration over a range of dose levels. Animals are housed in shoebox cages and are monitored daily for mortality for 30 (L1210), 45 (P388) or 60 (B16, M5076, colon 26) days.
# ip colon carcinoma 26 = experiment: ip-implanted colon carcinoma 26 in mice; format: in vivo, mouse; conditions: ip Colon Carcinoma 26; optimal doses and optimal schedules
# Source text: as §10, §11
# ip B16 melanoma = conditions: ip B16 Melanoma; optimal doses and optimal schedules
# Source text: as §10, §11
# [3] = tested on: ip B16 melanoma/F10 subline; conditions: ip B16 Melanoma/F10 Subline; optimal doses and optimal schedules
# Source text: as §10, §11
# sc colon carcinoma 26 = experiment: sc-implanted colon carcinoma 26 in mice; format: in vivo, mouse; conditions: sc Colon Carcinoma 26; optimal doses and optimal schedules
# Source text: as §1
# [4] = tested on: sc Madison lung carcinoma; experiment: sc-implanted Madison lung carcinoma in mice; format: in vivo, mouse; conditions: sc Madison Lung Carcinoma; optimal doses and optimal schedules
# Source text: as §1
# [5] = tested on: sc mammary adenocarcinoma 16/c; experiment: in vivo; parameters: species or system mouse; conditions: sc Mammary Adenocarcinoma 16/c; optimal doses and optimal schedules
# Source text: as §1
# sc ADJ-PC6 plasmacytoma = experiment: sc-implanted ADJ-PC6 plasmacytoma in mice; format: in vivo, mouse; conditions: sc ADJ-PC6 Plasmacytoma; optimal doses and optimal schedules
# Experimental: (§12) Inhibition of tumor growth (TGI) is based on mean tumor volume of groups of 7 or 8 mice relative to untreated controls. Tumors were measured between Days 12 and 19 (except Day 24 for Colon 51 and Day 31 for Colon 38).
# (§13) Tumors used in these studies are maintained by serial transplantation in syngeneic strains of mice C57BL/6 for Lewis lung carcinoma, B16 melanoma and its F10 subline, M5076 sarcoma and colon adenocarcinoma 38; BALB/c for colon carcinoma 26, ADJ-PC6 plasmacytoma Madison lung carcinoma and colon adenocarcinoma 51, C3H for mammary adenocarcinoma 16/c. With the exception of the M5076 sarcoma, which is maintained as a i.p ascites cell suspension, all of the tumors were serially transplanted as s.c. solid tumors.
# (§14) For therapeutic trials, tumors were aseptically removed from donor mice and prepared for implantation s.c. into test animals. The test animals for Lewis lung carcinoma, B16 melanoma and its F10 subline, M5076 sarcoma and colon adenocarcinoma 38 are syngeneic female F1 hybrid B6D2F mice (C57B1/6×DBA/2). ADJ-PC6 plasmacytoma and colon carcinoma 26 are evaluated in female BALB/c mice. Madison lung carcinoma and colon adenocarcinoma 51 are evaluated in syngeneic female F1 hybrid CD2F1 mice (BALB/c×DBA/2). Mammary adenocarcinoma 16/c is evaluated in female C3H mice. The inoculum varies with the tumor. Colon adenocarcinomas 38 is implanted as 2 mm fragments by trochar. M5076 sarcoma and ADJ-PC6 plasmacytoma are implanted as cell suspensions at 5×10^6 and 2×10^6 cells per mouse, respectively. Colon carcinoma 26, colon adenocarcinoma 51, Lewis lung carcinoma, Madison lung carcinoma and B16 melanoma and its F10 subline are implanted as tumor breis prepared as described above in a volume of 0.5 ml. The brei concentration was 10 percent (w:v) except for colon carcinoma 26 for which the brei concentration was 5 percent (w:v). After tumor inoculation, mice are randomized to treatment groups of 7 or 8 mice. In each experiment, there are three groups of untreated control mice.
# (§15) Drugs are dissolved or suspended in appropriate aqueous vehicles and given by a variety of routes of administration and treatment schedules over a range of dosage levels. Animals are housed in shoebox cages and are monitored daily for mortality. […] Time for tumor measurement is dependent on the different rates of tumor growth of the different tumors: the most rapidly growing tumors such as the Lewis and Madison lung tumors, B16 melanoma and its F10 subline were measured between Days 12 and 16. The slower growing tumors were measured at later time points--17 days for M5076 sarcoma, 16 or 19 days for mammary adenocarcinoma 16/c, 19 days for ADJ-PC6 plasmacytoma and colon carcinoma 26, 24 days for colon adenocarcinoma 51, and 31 days for colon adenocarcinoma 38.
# [6] = reported by Wani et al., J. Med. Chem., 30, 1774 (1987); cited from earlier work
# in vivo [7] = conditions: mouse, ip
# Experimental: as §7, §8, §9
# maximally tolerated dose of the drugs.
# in vivo [8] = conditions: mouse, iv
# Source text: as §2, §3, §4, §5, §6
# [9] = tested on: sc colon adenocarcinoma 51; format: in vivo, mouse; conditions: sc Colon Adenocarcinoma 51; optimal doses and optimal schedules
# Source text: as §1
# sc B16 melanoma = conditions: sc B16 Melanoma; optimal doses and optimal schedules
# Source text: Inhibition of tumor growth (TGI) is based on mean tumor volume of groups of 7 or 8 mice relative to untreated controls.
# as §13, §14, §15
# For highly metastatic tumors including: Lewis and Madison lung tumors, colon carcinoma 26 and B16 melanoma and its F10 subline, tumor-bearing mice are monitored for survival time as well. For the less mestastatic tumor models, tumor-bearing mice are killed following tumor measurement. In this setting, an increase in lifespan of ≥30 percent is considered to be evidence of drug activity.
# [10] = tested on: sc colon adenocarcinoma 38; conditions: sc Colon Adenocarcinoma 38; optimal doses and optimal schedules
# Experimental: as §12, §13, §14, §15
# [11] = Mus musculus, L1210, read-out: In Vitro Activity IC50
smiles,measurement,setting,value
"CC[C@@]1(O)C(=O)OCc2c1cc1n(c2=O)Cc2cc3cc(O)ccc3nc2-1 [10-Hydroxycamptothecin, (20 S) 10-Hydroxycamptothecin, reference compound]",Increase in Lifespan (ILS) or Inhibition of Tumor Growth (TGI),ip P388 leukemia,Curative
same,Increase in Lifespan (ILS) or Inhibition of Tumor Growth (TGI),sc Lewis lung carcinoma,4 % TGI
same,Increase in Lifespan (ILS) or Inhibition of Tumor Growth (TGI),[1],58 % TGI
same,IC50,"L1210 leukemia cells; L1210 suspension culture, continuous exposure, cloning into soft agar, read-out: In Vitro Activity IC50",18 nM
same,Increase in Lifespan (ILS) or Inhibition of Tumor Growth (TGI),iv L1210 leukemia,100 % ILS
same,solubility in water / aqueous vehicles,Aqueous solubility,insolubility in aqueous vehicles
same,Increase in Lifespan (ILS) or Inhibition of Tumor Growth (TGI),iv P388 leukemia,40 % ILS
same,Increase in Lifespan (ILS) or Inhibition of Tumor Growth (TGI),sc M5076 sarcoma,66 % TGI
same,In Vivo Antitumor Activity ILS (increase in lifespan),ip L1210 leukemia,94%
same,Increase in Lifespan (ILS) or Inhibition of Tumor Growth (TGI),ip L1210 leukemia,94 % ILS
same,MTD,[2],9 mg/kg
same,Increase in Lifespan (ILS) or Inhibition of Tumor Growth (TGI),ip M5076 sarcoma,98 % ILS
same,Increase in Lifespan (ILS) or Inhibition of Tumor Growth (TGI),ip colon carcinoma 26,Curative
same,Increase in Lifespan (ILS) or Inhibition of Tumor Growth (TGI),ip B16 melanoma,95 % ILS
same,Increase in Lifespan (ILS) or Inhibition of Tumor Growth (TGI),[3],100 % ILS
same,Increase in Lifespan (ILS) or Inhibition of Tumor Growth (TGI),sc colon carcinoma 26,37 % TGI
same,Increase in Lifespan (ILS) or Inhibition of Tumor Growth (TGI),[4],33 % TGI
same,Increase in Lifespan (ILS) or Inhibition of Tumor Growth (TGI),[5],61 % TGI
same,Increase in Lifespan (ILS) or Inhibition of Tumor Growth (TGI),sc ADJ-PC6 plasmacytoma,76 % TGI
CCC1(O)C(=O)OCc2c1cc1n(c2=O)Cc2cc3ccc(N)cc3nc2-1 (stereo not shown) [11-amino],activity in an assay for antitumor activity,[6],active
CCC1(O)C(=O)OCc2c1cc1n(c2=O)Cc2cc3ccc(CN)cc3nc2-1 (stereo not shown) [11-aminomethyl analog],activity in an assay for antitumor activity,[6],inactive
CCC1(O)C(=O)OCc2c1cc1n(c2=O)Cc2cc3ccc(C#N)cc3nc2-1 (stereo not shown) [11-cyano],activity in an assay for antitumor activity,[6],active
CCC1(O)C(=O)OCc2c1cc1n(c2=O)Cc2cc3ccc([N+](=O)[O-])cc3nc2-1 (stereo not shown) [11-nitro],activity in an assay for antitumor activity,[6],active
"CC[C@@]1(O)C(=O)OCc2c1cc1n(c2=O)Cc2cc3c(CN(C)C)cccc3nc2-1 [15S, (20S) 9-Dimethylaminomethylcamptothecin]",IC50,L1210 leukemia cells; [11],65 nM
same,In Vivo Antitumor Activity ILS (increase in lifespan),ip L1210 leukemia,88%
same,MTD,[2],15 mg/kg
"CC[C@@]1(O)C(=O)OCc2c1cc1n(c2=O)Cc2cc3cc(C#N)ccc3nc2-1 [16S, 10-Cyanocamptothecin]",IC50,L1210 leukemia cells; [11],80 nM
same,In Vivo Antitumor Activity ILS (increase in lifespan),ip L1210 leukemia,100%
same,MTD,[2],3 mg/kg
"CC[C@@]1(O)C(=O)OCc2c1cc1n(c2=O)Cc2cc3c(CC#N)c(O)ccc3nc2-1 [17S, (20S) 10-Hydroxy-9-cyanomethylcamptothecin]",IC50,L1210 leukemia cells; [11],400 nM
same,In Vivo Antitumor Activity ILS (increase in lifespan),ip L1210 leukemia,> 200%
same,MTD,[2],12 mg/kg
"CC[C@@]1(O)C(=O)OCc2c1cc1n(c2=O)Cc2cc3c(CN4CCOCC4)cccc3nc2-1 [18S, (20S) 9-Morpholinomethylcamptothecin]",IC50,L1210 leukemia cells; [11],690 nM
same,In Vivo Antitumor Activity ILS (increase in lifespan),ip L1210 leukemia,144%
same,MTD,[2],13 mg/kg
"CC[C@@]1(O)C(=O)OCc2c1cc1n(c2=O)Cc2cc3cc(CN)ccc3nc2-1 [20S, (20S) 10-Aminomethylcamptothecin Acetate salt]",IC50,L1210 leukemia cells; [11],90 nM
same,In Vivo Antitumor Activity ILS (increase in lifespan),ip L1210 leukemia,112%
same,MTD,[2],92 mg/kg
"CC[C@@](O)(C(=O)O)c1cc2n(c(=O)c1CO)Cc1cc3c(CN(C)C)c(O)ccc3nc1-2 [21S, Sodium Salt]",fold less potent than the three acid salts,"iv L1210 leukemia; by maximally tolerated dose, iv L1210",about 3.5 fold
same,ILS,iv L1210 leukemia; 6.5 mg/kg,33%
same,ILS,iv L1210 leukemia; 12 mg/kg,67%
same,ILS,iv L1210 leukemia; 19 mg/kg,100%
same,ILS,iv L1210 leukemia; 32 mg/kg,133%
same,ILS,iv L1210 leukemia; 54 mg/kg,208%
same,ILS,iv L1210 leukemia; 90 mg/kg,toxic
same,MTD,in vivo [7],54 mg/kg
same,In Vivo Antitumor Activity ILS (increase in lifespan),ip L1210 leukemia,> 200%
same,MTD,in vivo [8],54 mg/kg
"CC[C@@]1(O)C(=O)OCc2c1cc1n(c2=O)Cc2cc3c(CCN)c(O)ccc3nc2-1 [22S, (20S) 10-Hydroxy-9-aminoethylcamptothecin Acetate Salt]",IC50,L1210 leukemia cells; [11],360 nM
same,In Vivo Antitumor Activity ILS (increase in lifespan),ip L1210 leukemia,75%
same,MTD,[2],100 mg/kg
CC[C@@]1(O)C(=O)OCc2c1cc1n(c2=O)Cc2cc3ccccc3nc2-1 [Camptothecin],Increase in Lifespan (ILS) or Inhibition of Tumor Growth (TGI),ip P388 leukemia,Curative
same,Increase in Lifespan (ILS) or Inhibition of Tumor Growth (TGI),[9],75 % TGI
same,Increase in Lifespan (ILS) or Inhibition of Tumor Growth (TGI),sc Lewis lung carcinoma,92 % TGI
same,Increase in Lifespan (ILS) or Inhibition of Tumor Growth (TGI),[1],90 % TGI
same,Increase in Lifespan (ILS) or Inhibition of Tumor Growth (TGI),iv L1210 leukemia,136 % ILS
same,solubility in water / aqueous vehicles,Aqueous solubility,insolubility in aqueous vehicles
same,Increase in Lifespan (ILS) or Inhibition of Tumor Growth (TGI),iv P388 leukemia,75 % ILS
same,Increase in Lifespan (ILS) or Inhibition of Tumor Growth (TGI),sc M5076 sarcoma,100 % TGI
same,Increase in Lifespan (ILS) or Inhibition of Tumor Growth (TGI),ip L1210 leukemia,172 % ILS
same,Increase in Lifespan (ILS) or Inhibition of Tumor Growth (TGI),ip M5076 sarcoma,81 % ILS
same,Increase in Lifespan (ILS) or Inhibition of Tumor Growth (TGI),ip colon carcinoma 26,50 % ILS
same,Increase in Lifespan (ILS) or Inhibition of Tumor Growth (TGI),ip B16 melanoma,36 % ILS
same,Increase in Lifespan (ILS) or Inhibition of Tumor Growth (TGI),[3],68 % ILS
same,Increase in Lifespan (ILS) or Inhibition of Tumor Growth (TGI),sc B16 melanoma,78 % TGI
same,Increase in Lifespan (ILS) or Inhibition of Tumor Growth (TGI),[10],100 % TGI
same,Increase in Lifespan (ILS) or Inhibition of Tumor Growth (TGI),sc colon carcinoma 26,66 % TGI
same,Increase in Lifespan (ILS) or Inhibition of Tumor Growth (TGI),[4],63 % TGI
same,Increase in Lifespan (ILS) or Inhibition of Tumor Growth (TGI),[5],99 % TGI
same,Increase in Lifespan (ILS) or Inhibition of Tumor Growth (TGI),sc ADJ-PC6 plasmacytoma,100 % TGI
